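Growth conditions: 96-well plates. Treatment: test compound, 48 hours, 5 concentrations. Analysis: linear interpolation between bracketing concentrations; unreached endpoints set to highest concentration. GI50 is the concentration that inhibits growth by half.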 Activity calls are given as the source filed them. Cut-off read from the data, not from the text of the source: active = GI50 up to about 1.1 µM and inactive = higher. Some results are limits rather than exact numbers.

We go through eleven compounds from ChEMBL document CHEMBL1201862, “PubChem BioAssay data set” (2004).

Among the test systems are 786-0; CAKI-1; HL-60; HT-29; K562; KM12; LOX IMVI; M14; MDA-MB-231; MDA-MB-435; MOLT-4; Malme-3M; NCI/ADR-RES; OVCAR-3; SF-268; SF-295; SK-MEL-2; SK-MEL-5; SR; BT-549.
Common to all, as to assay: DTP human tumour cell line panel, 48 h

Usually GI50 stands for the concentration giving 50% growth inhibition. As for `O=c1c2ccccc2n2c(-c3ccccc3O)nnc2n1-c1ccccc1`, the GI50 in the assay on 786-0, in the assay on CAKI-1, in the assay on HL-60, with HT-29, with K562 and in the assay on KM12 was > 100 µM (inactive) in each case. The GI50 in the assay on LOX IMVI, with M14, in the assay on MDA-MB-231, in the assay on MDA-MB-435, in the assay on MOLT-4 and with Malme-3M was > 100 µM (inactive) in each case. For the same compound, the GI50 in the assay on NCI/ADR-RES, in the assay on OVCAR-3, in the assay with SF-268, in the assay with SF-295, in the assay with SK-MEL-2 and in the assay on SK-MEL-5 was > 100 µM (inactive) throughout. The GI50 in the assay with SR was > 100 µM (inactive).

For the compound `CCOC(=O)CCC(NC(=O)c1ccc(CNc2nc3ccccc3nc2C(=O)OCC)cc1)C(=O)OCC` (stereo not given), the GI50 in the assay on 786-0, in the assay with HT-29, in the assay with K562, in the assay with KM12, with LOX IMVI and in the assay with M14 was > 100 µM (inactive) each time. The GI50 in the assay with MDA-MB-231 is 24.9 µM (inactive); with MDA-MB-435, 3.01 µM (inactive); in the assay on MOLT-4, > 100 µM (inactive); with Malme-3M it was 77.3 µM (inactive); in the assay on NCI/ADR-RES, > 100 µM (inactive); with OVCAR-3, 78.7 µM (inactive). Besides, the GI50 in the assay on SF-268, with SF-295, with SK-MEL-2 and in the assay with SK-MEL-5 was > 100 µM (inactive) throughout.

Regarding `O=C(ON=C1c2ccccc2C(Br)C(Br)c2ccccc21)c1cc([N+](=O)[O-])cc([N+](=O)[O-])c1` (stereo not given), the GI50 with 786-0 is 14.9 µM (inactive); in the assay on CAKI-1, 20.5 µM (inactive); in the assay on HL-60, 0.158 µM (active); in the assay with HT-29 it was 16.3 µM (inactive); in the assay on K562, 16.9 µM (inactive); in the assay with KM12, 19.4 µM (inactive). For the same compound, the GI50 is 13.9 µM (inactive) in the assay on LOX IMVI; 17.6 µM (inactive) in the assay with M14; 19.2 µM (inactive) in the assay with MDA-MB-231; 18.5 µM (inactive) with MDA-MB-435; 7.45 µM (inactive) in the assay on MOLT-4; 18.5 µM (inactive) in the assay on Malme-3M. Moreover, the GI50 with NCI/ADR-RES was 19.6 µM (inactive); with OVCAR-3, 19.9 µM (inactive); with SF-268, 17.8 µM (inactive); in the assay with SF-295, 35 µM (inactive); in the assay with SK-MEL-2, 31.6 µM (inactive); with SK-MEL-5 it was 16.6 µM (inactive). Further, the 50% growth inhibitory concentration (GI50) in the assay on SR was 0.245 µM (active).

Consider `CC(C)(C)C(=O)C(C(=O)C(C)(C)C)C(=O)C(C)(C)C`, for which the GI50 in the assay with 786-0, in the assay on CAKI-1, in the assay on HL-60, in the assay on HT-29, in the assay with K562 and with KM12 was > 100 µM (inactive) each time. For the same compound, the GI50 in the assay with LOX IMVI, in the assay with M14, in the assay with MDA-MB-231, with MDA-MB-435, with MOLT-4 and with Malme-3M was > 100 µM (inactive) throughout. Further, the GI50 with NCI/ADR-RES, with OVCAR-3, with SF-268, in the assay with SF-295, in the assay on SK-MEL-2 and in the assay on SK-MEL-5 was > 100 µM (inactive) in each case. In the assay on SR, the GI50 is > 100 µM (inactive).

As to `O=C(CSCC(=O)N/N=C/c1cccc(O)c1)N/N=C/c1cccc(O)c1`, the GI50 with 786-0, with CAKI-1, in the assay with HL-60, in the assay on HT-29, with K562 and with KM12 was > 100 µM (inactive) in each case. Besides, the GI50 in the assay on M14, in the assay on MDA-MB-231, with MDA-MB-435, in the assay with MOLT-4, with Malme-3M and in the assay on NCI/ADR-RES was > 100 µM (inactive) throughout. Moreover, the GI50 with OVCAR-3, in the assay with SF-268, with SF-295, in the assay on SK-MEL-2, with SK-MEL-5 and with SR was > 100 µM (inactive) throughout.

In the case of `Cc1ccccc1NC(=O)Cc1csc(N/N=C2\C(=O)Nc3ccccc32)n1`, the GI50 is 43 µM (inactive) in the assay on 786-0; 19.9 µM (inactive) in the assay on CAKI-1; 22.3 µM (inactive) in the assay on HL-60; 55.6 µM (inactive) in the assay with HT-29; 64.7 µM (inactive) in the assay on K562; 33.3 µM (inactive) in the assay on KM12. Moreover, the GI50 is 64.1 µM (inactive) in the assay on LOX IMVI; 50 µM (inactive) in the assay on M14; 29.7 µM (inactive) in the assay with MDA-MB-231; 1 µM (active) with MDA-MB-435; 29.7 µM (inactive) with MOLT-4; 32.4 µM (inactive) in the assay on Malme-3M. Also, the GI50 is 29.7 µM (inactive) in the assay on NCI/ADR-RES; 39.4 µM (inactive) in the assay with SF-268; 16.7 µM (inactive) in the assay on SF-295; 44.6 µM (inactive) in the assay with SK-MEL-2; 46.8 µM (inactive) in the assay with SK-MEL-5.

With `O=c1c2cc(S(=O)(=O)O)ccc2nc(COc2ccc(Oc3ccc(Cl)cc3Cl)cc2)n1C(=S)Nc1ccc(Cl)cc1`, the GI50 in the assay on 786-0 was 19.2 µM (inactive); in the assay on BT-549, 19.6 µM (inactive); in the assay on CAKI-1, 27.9 µM (inactive); in the assay with HL-60, 0.457 µM (active); in the assay on HT-29, 20.6 µM (inactive); in the assay on K562, 1.06 µM (active). Also, the GI50 in the assay with KM12 was 22.5 µM (inactive); with LOX IMVI, 16.6 µM (inactive); in the assay with M14 it was 20.2 µM (inactive); in the assay on MDA-MB-435, 18.6 µM (inactive); in the assay with Malme-3M, 21.6 µM (inactive); with NCI/ADR-RES, 17.7 µM (inactive). The GI50 was 21.5 µM (inactive) in the assay with OVCAR-3; 16.3 µM (inactive) with SF-268; 19.9 µM (inactive) in the assay with SF-295; 18.4 µM (inactive) with SK-MEL-2; 17.7 µM (inactive) in the assay with SK-MEL-5; 1.53 µM (inactive) in the assay with SR.

As to `CCCCCCCCCCC(O)[C@H]1CCC(C2CC[C@H]([C@H](O)CCCCCCCCCCC(O)CC3=CC(C)OC3=O)O2)O1` (stereo not given in full), the GI50 is 3.51 µM (inactive) with 786-0; 2.18 µM (inactive) with CAKI-1; 1.77 µM (inactive) in the assay with HL-60; 1.55 µM (inactive) in the assay with HT-29; 1.8 µM (inactive) in the assay on K562; 1.47 µM (inactive) in the assay on KM12. In addition, the GI50 in the assay with LOX IMVI was 1.38 µM (inactive); in the assay on M14 it was 1.69 µM (inactive); with MDA-MB-231, 1.61 µM (inactive); in the assay on MOLT-4 it was 2.47 µM (inactive); in the assay on Malme-3M, 1.39 µM (inactive); with NCI/ADR-RES, 0.211 µM (active). The GI50 with OVCAR-3 is 1.71 µM (inactive); in the assay with SF-268, 1.58 µM (inactive); in the assay on SF-295, 0.214 µM (active); with SK-MEL-2, 1.53 µM (inactive); in the assay with SK-MEL-5, 0.565 µM (active); in the assay with SR it was 1.9 µM (inactive).

For the compound `COc1ccc(/C=C/C(=O)C(C)C)cc1`, the GI50 in the assay with 786-0 was 71.3 µM (inactive); with CAKI-1, 44.8 µM (inactive); with HL-60 it was 22.9 µM (inactive); with HT-29, 29 µM (inactive); in the assay on K562, 32.8 µM (inactive); in the assay on KM12, 33.6 µM (inactive). Moreover, the GI50 in the assay on LOX IMVI was 32.9 µM (inactive); in the assay with M14 it was 28.3 µM (inactive); in the assay on MOLT-4 it was 33.2 µM (inactive); in the assay on Malme-3M, 42 µM (inactive); in the assay on OVCAR-3 it was 25.9 µM (inactive); in the assay on SF-268, 42.3 µM (inactive). For the same compound, the GI50 was 31.6 µM (inactive) in the assay on SF-295, 27.7 µM (inactive) in the assay on SK-MEL-2, 48.1 µM (inactive) with SK-MEL-5 and 25.2 µM (inactive) in the assay on SR.

With `O=[N+]([O-])c1ccc2[nH]nc(OCc3ccccc3Cl)c2c1`, the GI50 was 25 µM (inactive) in the assay with 786-0; 50.4 µM (inactive) in the assay with CAKI-1; > 100 µM (inactive) with HL-60; > 100 µM (inactive) in the assay with HT-29; > 100 µM (inactive) with K562; 91.4 µM (inactive) in the assay with KM12. Moreover, the GI50 in the assay with LOX IMVI was 28.6 µM (inactive); in the assay with M14 it was > 100 µM (inactive); with MDA-MB-231, > 100 µM (inactive); in the assay on MDA-MB-435, > 100 µM (inactive); with MOLT-4, 63.5 µM (inactive); with Malme-3M, 98.9 µM (inactive). For the same compound, the GI50 is 25 µM (inactive) in the assay with NCI/ADR-RES; 23.4 µM (inactive) in the assay on OVCAR-3; 68.7 µM (inactive) in the assay on SF-268; 42.6 µM (inactive) in the assay on SF-295; 27.2 µM (inactive) with SK-MEL-2; 26.5 µM (inactive) in the assay with SK-MEL-5. The GI50 in the assay with SR was > 100 µM (inactive).

As for `CN/C(=N\n1cnnc1)OC`, the GI50 in the assay with 786-0, with CAKI-1, in the assay on HT-29, with K562, in the assay with KM12 and in the assay on M14 was > 100 µM (inactive) in each case. The GI50 in the assay with MDA-MB-231, with MDA-MB-435, in the assay on MOLT-4, with Malme-3M, with NCI/ADR-RES and in the assay with OVCAR-3 was > 100 µM (inactive) in each case. Also, the GI50 with SF-295, with SK-MEL-2, in the assay on SK-MEL-5 and in the assay with SR was > 100 µM (inactive) each time.
